According to BindingDB's records for doi:10.1111/cbdd.12793 (Nanjing University, 2016):

Biological target: Tyrosine--tRNA ligase (Staphylococcus aureus (strain MSSA476), UniProt Q6G8J9)
Test: In vitro Enzyme Inhibition Assay
Conditions: pH 7.9
Method: The assays were conducted at 37 °C in a mixture containing 100 mM Tris/Cl pH 7.9, 50 mM KCl, 16 mM MgCl2, 5 mM ATP, 3 mM DTT, 4 mg/ml E. coli MRE600 tRNA (Roche) and 10 μM L-tyrosine (0.3 μM L-[ring-3,5-3H] tyrosine (PerkinElmer, Specific activity: 1.48-2.22 TBq/mmol), 10 μM carrier). Above all, TyrRS (0.2 nM) was pre-incubated with kinds of concentrations inhibitor for 10 min (RT) followed by the addition of pre-warmed mixture and moved them together to 37 °C. After specific intervals, the reaction was ended by the addition of aliquots of the reaction mix into gelid 7% trichloroacetic acid and harvested onto […] hydrophilic Durapore filters (Millipore Multiscreen 96-well plates) and counted by liquid scintillation.

Tyrosine--tRNA ligase, sequence (Q6G8J9 whole entry): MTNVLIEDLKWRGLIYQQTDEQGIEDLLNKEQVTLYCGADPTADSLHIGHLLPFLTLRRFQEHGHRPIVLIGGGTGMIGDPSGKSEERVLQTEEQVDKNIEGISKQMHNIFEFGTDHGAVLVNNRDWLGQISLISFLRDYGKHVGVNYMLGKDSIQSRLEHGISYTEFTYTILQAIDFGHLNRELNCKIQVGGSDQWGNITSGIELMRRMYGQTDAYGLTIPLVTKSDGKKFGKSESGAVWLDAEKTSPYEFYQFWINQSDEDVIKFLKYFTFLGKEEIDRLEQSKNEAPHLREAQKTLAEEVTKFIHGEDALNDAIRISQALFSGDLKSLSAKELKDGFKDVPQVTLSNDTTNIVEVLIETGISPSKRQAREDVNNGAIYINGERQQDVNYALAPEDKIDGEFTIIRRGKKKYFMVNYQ

Row | Structure (SMILES) | IC50 [µM]
1 | Cc1ncc([N+](=O)[O-])n1CCOC(=O)c1cc(-c2ccc(Cl)cc2)n(-c2ccccc2)n1 [2-(2-Methyl-5-nitro-1H-imidazol-1-yl)-ethyl-5-(4-chlorophenyl)-1-phenyl-1H-pyrazole-3-carboxylate (4i)] | 21.2
2 | Cc1cccc(-c2cc(C(=O)OCCn3c([N+](=O)[O-])cnc3C)nn2-c2ccc(Cl)cc2)c1 [2-(2-Methyl-5-nitro-1H-imidazol-1-yl)-ethyl-1-(4-chlorophenyl)-5-(m-tolyl)-1H-pyrazole-3-carboxylate (4w)] | 29.2
3 | Cc1ncc([N+](=O)[O-])n1CCOC(=O)c1cc(-c2ccccc2F)n(-c2ccccc2)n1 [2-(2-Methyl-5-nitro-1H-imidazol-1-yl)-ethyl-5-(2-fluorophenyl)-1-phenyl-1H-pyrazole-3-carboxylate (4t)] | 95.4
4 | Cc1ccc(-n2nc(C(=O)OCCn3c([N+](=O)[O-])cnc3C)cc2-c2ccc(I)cc2)cc1 [2-(2-Methyl-5-nitro-1H-imidazol-1-yl)-ethyl-5-(4-iodophenyl)-1-(p-tolyl)-1H-pyrazole-3-carboxylate (4e)] | 40.5
5 | Cc1ccccc1-c1cc(C(=O)OCCn2c([N+](=O)[O-])cnc2C)nn1-c1ccc(Cl)cc1 [2-(2-Methyl-5-nitro-1H-imidazol-1-yl)-ethyl-1-(4-chlorophenyl)-5-(o-tolyl)-1H-pyrazole-3-carboxylate (4q)] | 5.11
6 | COc1ccc(-c2cc(C(=O)OCCn3c([N+](=O)[O-])cnc3C)nn2-c2ccc(C)cc2)cc1 [2-(2-Methyl-5-nitro-1H-imidazol-1-yl)-ethyl-5-(4-methoxyphenyl)-1-(p-tolyl)-1H-pyrazole-3-carboxylate (4a)] | 10.8
7 | Cc1ncc([N+](=O)[O-])n1CCOC(=O)c1cc(-c2ccc(Cl)cc2)n(-c2ccc(Cl)cc2)n1 [2-(2-Methyl-5-nitro-1H-imidazol-1-yl)-ethyl-1,5-bis(4-chlorophenyl)-1H-pyrazole-3-carboxylate (4n)] | 53.1
8 | COc1ccc(-c2cc(C(=O)OCCn3c([N+](=O)[O-])cnc3C)nn2-c2ccc(Cl)cc2)cc1 [2-(2-Methyl-5-nitro-1H-imidazol-1-yl)-ethyl-1-(4-chlorophenyl)-5-(4-methoxyphenyl)-1H-pyrazole-3-carboxylate (4k)] | 1.67
9 | Cc1ccc(-n2nc(C(=O)OCCn3c([N+](=O)[O-])cnc3C)cc2-c2ccc(Cl)cc2)cc1 [2-(2-Methyl-5-nitro-1H-imidazol-1-yl)-ethyl-5-(4-chlorophenyl)-1-(p-tolyl)-1H-pyrazole-3-carboxylate (4d)] | 47.8
10 | Cc1ncc([N+](=O)[O-])n1CCOC(=O)c1cc(-c2ccccc2F)n(-c2ccc(Cl)cc2)n1 [2-(2-Methyl-5-nitro-1H-imidazol-1-yl)-ethyl-1-(4-chlorophenyl)-5-(2-fluorophenyl)-1H-pyrazole-3-carboxylate (4u)] | 76.2
11 | Cc1ncc([N+](=O)[O-])n1CCOC(=O)c1cc(-c2ccc(I)cc2)n(-c2ccc(Cl)cc2)n1 [2-(2-Methyl-5-nitro-1H-imidazol-1-yl)-ethyl-1-(4-chlorophenyl)-5-(4-iodophenyl)-1H-pyrazole-3-carboxylate (4o)] | 13.3
12 | Cc1ccc(-c2cc(C(=O)OCCn3c([N+](=O)[O-])cnc3C)nn2-c2ccccc2)cc1 [2-(2-Methyl-5-nitro-1H-imidazol-1-yl)-ethyl-1-phenyl-5-(p-tolyl)-1H-pyrazole-3-carboxylate (4g)] | 60.8
13 | Cc1ncc([N+](=O)[O-])n1CCOC(=O)c1cc(-c2ccccc2)n(-c2ccccc2)n1 [2-(2-Methyl-5-nitro-1H-imidazol-1-yl)-ethyl-1,5-diphenyl-1H-pyrazole-3-carboxylate (4r)] | 63.1
14 | Cc1ncc([N+](=O)[O-])n1CCOC(=O)c1cc(-c2cccc(F)c2)n(-c2ccccc2)n1 [2-(2-Methyl-5-nitro-1H-imidazol-1-yl)-ethyl-5-(3-fluorophenyl)-1-phenyl-1H-pyrazole-3-carboxylate (4x)] | 84.1
15 | Cc1ccc(-c2cc(C(=O)OCCn3c([N+](=O)[O-])cnc3C)nn2-c2ccc(Cl)cc2)cc1 [2-(2-Methyl-5-nitro-1H-imidazol-1-yl)-ethyl-1-(4-chlorophenyl)-5-(p-tolyl)-1H-pyrazole-3-carboxylate (4l)] | 18.1
16 | Cc1ccc(-c2cc(C(=O)OCCn3c([N+](=O)[O-])cnc3C)nn2-c2ccc(C)cc2)cc1 [2-(2-Methyl-5-nitro-1H-imidazol-1-yl)-ethyl-1,5-di-p-tolyl-1H-pyrazole-3-carboxylate (4b)] | 31.9
17 | Cc1ccc(-n2nc(C(=O)OCCn3c([N+](=O)[O-])cnc3C)cc2-c2ccc(F)cc2)cc1 [2-(2-Methyl-5-nitro-1H-imidazol-1-yl)-ethyl-5-(4-fluorophenyl)-1-(p-tolyl)-1H-pyrazole-3-carboxylate (4c)] | 56
18 | Cc1ncc([N+](=O)[O-])n1CCOC(=O)c1cc(-c2ccc(F)cc2)n(-c2ccc(Cl)cc2)n1 [2-(2-Methyl-5-nitro-1H-imidazol-1-yl)-ethyl-1-(4-chlorophenyl)-5-(4-fluorophenyl)-1H-pyrazole-3-carboxylate (4m)] | 64.4
19 | Cc1ncc([N+](=O)[O-])n1CCOC(=O)c1cc(-c2ccc(I)cc2)n(-c2ccccc2)n1 [2-(2-Methyl-5-nitro-1H-imidazol-1-yl)-ethyl-5-(4-iodophenyl)-1-phenyl-1H-pyrazole-3-carboxylate (4j)] | 36.7
20 | COc1ccc(-c2cc(C(=O)OCCn3c([N+](=O)[O-])cnc3C)nn2-c2ccccc2)cc1 [2-(2-Methyl-5-nitro-1H-imidazol-1-yl)-ethyl-5-(4-methoxyphenyl)-1-phenyl-1H-pyrazole-3-carboxylate (4f)] | 0.92
21 | Cc1ccccc1-c1cc(C(=O)OCCn2c([N+](=O)[O-])cnc2C)nn1-c1ccccc1 [2-(2-Methyl-5-nitro-1H-imidazol-1-yl)-ethyl-1-phenyl-5-(o-tolyl)-1H-pyrazole-3-carboxylate (4p)] | 4.55
22 | Cc1cccc(-c2cc(C(=O)OCCn3c([N+](=O)[O-])cnc3C)nn2-c2ccccc2)c1 [2-(2-Methyl-5-nitro-1H-imidazol-1-yl)-ethyl-1-phenyl-5-(m-tolyl)-1H-pyrazole-3-carboxylate (4v)] | 21.6
23 | Cc1ncc([N+](=O)[O-])n1CCOC(=O)c1cc(-c2cccc(F)c2)n(-c2ccc(Cl)cc2)n1 [2-(2-Methyl-5-nitro-1H-imidazol-1-yl)-ethyl-1-(4-chlorophenyl)-5-(3-fluorophenyl)-1H-pyrazole-3-carboxylate (4y)] | 60.1
24 | Cc1ncc([N+](=O)[O-])n1CCOC(=O)c1cc(-c2ccc(F)cc2)n(-c2ccccc2)n1 [2-(2-Methyl-5-nitro-1H-imidazol-1-yl)-ethyl-5-(4-fluorophenyl)-1-phenyl-1H-pyrazole-3-carboxylate (4h)] | 70
25 | Cc1ncc([N+](=O)[O-])n1CCOC(=O)c1cc(-c2ccccc2)n(-c2ccc(Cl)cc2)n1 [2-(2-Methyl-5-nitro-1H-imidazol-1-yl)-ethyl-1-(4-chlorophenyl)-5-phenyl-1H-pyrazole-3-carboxylate (4s)] | 16.5
